Where two headings read alike, the source gives them in different places.
Experiments:
[1] = system: leukemic stem cell clone ABM42 C31; assay: MTS viability assay, murine leukemic stem cell line; assay type: cell-based; details: serial two-fold dilutions starting from 10 μM, 24 h, FIG. 1
Description: (§1) Leukemic stem cell lines and normal hematopoetic stem cell lines are separately maintained in cultures as described above. For viability assays, the cell lines are passed 24-36 hours prior to use in the assay, in order to test for sensitivity to specific drugs with cells in log-phase growth. Cells are plated in 96-well flat bottom plates (Greiner, Switzerland), at a concentration of 10^4 cells for the leukemic stem cell lines and normal hematopoietic stem cell lines, or 10^5 for the primary human fetal cord blood cells. Cells are plated in a final volume of 200 μl containing RPMI-1640 growth medium, supplemented as described above. Cells are either plated in medium alone, or medium containing a drug of interest. All drugs are tested in 11 different concentrations in order to derive sensitivity curves. The individual conditions were set up in triplicate wells, and at least three independent assays are performed to validate a specific observation.
(§2) The cells are cultured with the specific drug concentration for 24 hours at 37° C. in a 5% CO2 atmosphere. After culturing the cells under the experimental conditions for 23 hours, the wells are supplemented with 10 μl of the CellTiter 96 Aqueous Non-radioactive Cell Proliferation MTS reagent (Promega, Madison Wis.), and incubated in a 37° C. incubator (5% CO2) for 60 minutes. All plates are analyzed using a plate reader (Molecular Devices) using a filter set for O.D. 405. All values are used to derive standard errors, and compared among the different independent assays.
(§3) These compounds are screened for the ability to inhibit leukemic stem cell viability but not affect normal hematopoietic stem cells by incubating the compounds with cells using serial two-fold dilutions starting from 10 μM stocks.

[2] = system: normal murine hematopoietic stem cell line "BL/6 BM"; assay: MTS viability assay, normal murine hematopoietic stem cell line; assay type: cell-based; details: serial two-fold dilutions starting from 10 μM, 24 h, FIG. 1
Description: as §1, §2, §3

[3] = system: leukemic cell line (U937); assay: MTS viability assay, human leukemic cell line; assay type: cell-based; details: serial two-fold dilutions beginning with 10 μM, 24 h, FIG. 3
Description: as §1, §2
These compounds are incubated with cells using serial two-fold dilutions beginning with 10 μM.

[4] = assay type: in vivo; details: immune deficient mice reconstituted with murine hematopoetic stem cell lines; 7 daily injections of 1 mM concentrations
Description: Immune deficient mice that are reconstituted with the murine hematopoetic stem cell lines are injected with 10,000× the effective in vitro concentration of a drug. Briefly, mice are given 7 daily injections of 1 mM concentrations of one of 4-Amino-7-[(2R,3S,4S,5R)-3,4-dihydroxy-5-(hydroxymethyl)oxolan-2-yl]-6-hydrazinylpyrrolo[5,4-d]pyrimidine-5-carboxamide, 2-[(2-chloro-4-nitrophenanthridin-6-yl)amino]ethanol, and 5-(anthracen-1-ylmethylidene)-2-sulfanylidene-1,3diazinane-4,6-dione. After the 7th day the mice are monitored for overt side-effects and survival.

[5] = system: ABM 42 C31 leukemic stem cells; assay: Therapeutic trial: survival of mice transplanted with leukemic stem cells (pre-clinical model of AML); assay type: in vivo; details: 7 daily injections of 250 ul of 10 uM solution, intravenously, from clinical signs (about 15 d post-transplant); FIG. 5
From the text: Groups of 3-5 mice are utilized for each of the experimental protocols. Transplantation of tumors is done by injecting 10^3 cells intravenously into cohorts of sub-lethally irradiated (450R)C57/BL6/Rag −/− mice ranging in age from 4-6 weeks. The mice are monitored daily for clinical signs of disease. These clinical signs included externally evident splenomegaly, a hunched posture and reduce mobility, labored breathing, dehydration, scruffy fur and an ascending paralysis in a minority of cases. […] The mice then receive daily injections of the indicated agents for 7 days. Mice are held indefinitely to ascertain rates of survival.
Into cohorts of sublethally irradiated mice are transplanted 10^3 ABM 42 C31 leukemic stem cells. Treatment of the mice when they develop clinical signs of disease (hunched posture, rapid breathing, scruffled fur at approximately 15d post-transplant). Mice receive 7 daily injections of 250 ul XPBS solutions containing 10 uM concentrations of 4-Amino-7-[(2R,3S,4S,5R)-3,4-dihydroxy-5-(hydroxymethyl)oxolan-2-yl]-6-hydrazinylpyrrolo[5,4-d]pyrimidine-5-carboxamide, 2-[(2-chloro-4-nitrophenanthridin-6-yl)amino]ethanol, and 5-(anthracen-1-ylmethylidene)-2-sulfanylidene-1,3diazinane-4,6-dione. After the 7th day the mice are monitored for survival. FIG. 5 illustrates that administration of the compounds delay mortality in a pre-clinical model of AML disease.

leukemic stem cells [6] = assay: Flow cytometric analysis of apoptosis induction (7AAD); assay type: cell-based; details: 10 μM; 24 h; versus normal murine hematopoietic stem cell lines; FIG. 2
Description: For analysis of apoptosis in leukemic stem cells or in normal hematopoietic stem cell lines, cells are cultured (in triplicate) with the specific drug concentration for 24 hours at 37° C. in a 5% CO2 atmosphere. Cell suspensions obtained from cultured cells are washed twice in FACS buffer, incubated for 20 minutes with 4 μM 7-aminoactinomycin-D (7AAD, Calbiochem), and washed with FACS buffer. Stained cells are resuspended in PBS and analyzed immediately on a flow cytometer.
4-Amino-7-[(2R,3S,4S,5R)-3,4-dihydroxy-5-(hydroxymethyl)oxolan-2-yl]-6-hydrazinylpyrrolo[5,4-d]pyrimidine-5-carboxamide, 2-[(2-chloro-4-nitrophenanthridin-6-yl)amino]ethanol, and 5-(anthracen-1-ylmethylidene)-2-sulfanylidene-1,3diazinane-4,6-dione preferentially kill murine leukemic stem cell viability vs. normal murine hematopoietic stem cell line. These compounds are screened to determine whether the effect of the compounds on reduced viability was due to inhibiting proliferation, or direct killing through apoptosis. The cells are analyzed by flow cytometric analysis for the exclusion of 7-aminoactinomycin-D (7AAD). At a concentration of 10 μM, cells are incubated in a 5% CO2 atmosphere for 24 h. After two washes in 1×PBS the cells are incubated with 4 μM 7-aminoactinomycin-D (7AAD) for 20 min.

[7] = mouse, in vivo
[8] = Bone marrow toxicity in mice (FIG. 17); details: compared to mice treated with methotrexate (MTX)
[9] = system: primary unmanipulated fetal cord blood cells; assay: MTS viability assay, primary fetal cord blood cells; assay type: cell-based, human; details: at the drug concentrations tested (two-fold dilutions from 10 μM), 24 h, FIG. 4
Description: as §1
The cells are cultured with the specific drug concentration for 24 hours at 37° C. in a 5% CO2 atmosphere. […] All plates are analyzed using a plate reader (Molecular Devices) using a filter set for O.D. 405. […]

[10] = system: normal hematopoietic stem cells; assay: Effect on normal hematopoietic stem cells (FIG. 6); assay type: cell-based
leukemic stem cells [11] = assay: Killing of leukemic stem cells (FIG. 6); assay type: cell-based

O=[N+]([O-])c1cc(Cl)cc2c1nc(NCCO)c1ccccc12 [2-[(2-chloro-4-nitrophenanthridin-6-yl)amino]ethanol]
viability of leukemic stem cells [1]: preferentially inhibited viability
viability of normal murine hematopoietic stem cell line [2]: but not the normal murine hematopoietic stem cell line
viability of human leukemic cell lines [3]: preferentially inhibited viability of the leukemic cell lines
mortality [4]: none of the mice died
survival of mice transplanted with leukemic stem cells [5]: increase survival
apoptosis induction (7AAD positive/GFP negative) (leukemic stem cells [6]): induce apoptosis preferentially in leukemic stem cells
bone marrow toxicity [7]: less bone marrow toxicity

NNc1c(C(N)=O)c2c(N)ncnc2n1[C@@H]1O[C@H](CO)[C@@H](O)[C@@H]1O [4-amino-7-[(2R,3S,4S,5R)-3,4-dihydroxy-5-(hydroxymethyl)oxolan-2-yl]-6-hydrazinylpyrrolo[5,4-d]pyrimidine-5-carboxamide]
viability of leukemic stem cells [1]: preferentially inhibited viability
viability of normal murine hematopoietic stem cell line [2]: but not the normal murine hematopoietic stem cell line
viability of human leukemic cell lines [3]: preferentially inhibited viability of the leukemic cell lines
mortality [4]: none of the mice died
survival of mice transplanted with leukemic stem cells [5]: increase survival
bone marrow toxicity [8]: less bone marrow toxicity
apoptosis induction (7AAD positive/GFP negative) (leukemic stem cells [6]): induce apoptosis preferentially in leukemic stem cells

O=C1NC(=S)NC(=O)C1=Cc1cccc2cc3ccccc3cc12 [5-(anthracen-1-ylmethylidene)-2-sulfanylidene-1,3diazinane-4,6-dione]
viability of primary unmanipulated fetal cord blood cultures [9]: no decrease in viability
viability of leukemic stem cells [1]: preferentially inhibited viability
viability of normal murine hematopoietic stem cell line [2]: but not the normal murine hematopoietic stem cell line
viability of human leukemic cell lines [3]: preferentially inhibited viability of the leukemic cell lines
mortality [4]: none of the mice died
survival of mice transplanted with leukemic stem cells [5]: increase survival
bone marrow toxicity [8]: less bone marrow toxicity
apoptosis induction (7AAD positive/GFP negative) (leukemic stem cells [6]): induce apoptosis preferentially in leukemic stem cells

CN(Cc1cnc2nc(N)nc(N)c2n1)c1ccc(C(=O)N[C@@H](CCC(=O)O)C(=O)O)cc1 [methotrexate]
effect on normal hematopoietic stem cells [10]: killed
effect on leukemic stem cells (leukemic stem cells [11]): killed
